Source: patent US20250057844A1, “METHODS OF TREATING NEOPLASTIC DISEASES” (SILLAJEN, INC., priority 2021, published 2025)
“Also recorded” adds a separate entry of the source. Read-outs that look alike come from different tables or passages of the source.

Columns and labels:
MDA-MB-231 tumor cells = test: MDA-MB-231 TNBC xenograft study
Procedure: Female NCr nu/nu nude mice (CharlesRiver laboratories) of 8-12 weeks of age were subcutaneously (s.c.) inoculated in the flank with 5×10^6 MDA-MB-231 tumor cells. Randomization into treatment groups (8 mice per group) was made when the mean tumor size was 100-150 mm3.
Body weights and tumor volumes were determined at least twice per week by measuring two dimensions with calipers and applying the formula “V=(L×W2)/2”, where V is the tumor volume, and L and W are the tumor length and width respectively. […] Mice were also culled if the BWL was determined to be >15% for 3 consecutive days. Any mice with >10% BWL received a dosing holiday until the BWL returned to <10%. All animal protocols were reviewed and approved by the relevant local committees in USA (IACUC) where the studies were performed.

[1] = system: tumor patient-derived xenografts (PDX), including TNBC and hepatocellular cancer (HCC) models; test: Patient-derived xenografts (PDX) in mice; format: in vivo; details: data not shown
[2] = Third PK study: intravenous dose on day 1 or on day 6 after 5 days oral dosing; format: in vivo, female Swiss Albino mice; details: for half-life / clearance / Vd / AUC(0-inf) / AUC(0-t) / C0: female, Swiss Albino, mouse, plasma, iv, 5 mg/kg
Procedure: In a third study female Swiss Albino mice were administered intravenously (bolus, 5 mL/kg) dose of 5 mg/kg of the compound of formula (I). Group 1 (9 mice) received a single i.v. dose administration on day 1. Group 2 (9 mice) received daily oral administration of 10 mg/kg of the compound of formula (I) from day 1 to day 5 following by a single i.v. dose administration of 5 mg/kg of the compound of formula (I) on day 6. PK samples were collected on day 1 for group 1 and on day 6 for group 2. The formulation vehicle consisted of ethanol, PEG 400 and citric acid 20 mM (10/10/80; v/v/v) in water for injection (WFI). Blood samples were taken pre-dose and at 0.083, 0.25, 0.5, 1, 2, 6, 12, and 24 h post-dose administration (3 mice/time point). In each of the three studies blood was collected via the sephanous vein into K2-EDTA tubes kept on ice until centrifugation at 4° C. Plasma was stored at ap-proximately-80° C. […] PK parameters were calculated using Phoenix® WinNonLin 6.4. PK analysis was based on sparse sampling.

tumor-derived TTK = target: T1, tumor-derived TTK (Homo sapiens, UniProt P33981); test: Tumor TTK target occupancy in MDA-MB-231 xenograft-bearing mice; format: in vivo
T1 construct: TTK target occupancy was also measured in tumors derived from MDA-MB-231 xenograft-bearing mice; from tissue; host or cells: MDA-MB-231 xenograft tumours grown in mice
T1 sequence (P33981 1-857): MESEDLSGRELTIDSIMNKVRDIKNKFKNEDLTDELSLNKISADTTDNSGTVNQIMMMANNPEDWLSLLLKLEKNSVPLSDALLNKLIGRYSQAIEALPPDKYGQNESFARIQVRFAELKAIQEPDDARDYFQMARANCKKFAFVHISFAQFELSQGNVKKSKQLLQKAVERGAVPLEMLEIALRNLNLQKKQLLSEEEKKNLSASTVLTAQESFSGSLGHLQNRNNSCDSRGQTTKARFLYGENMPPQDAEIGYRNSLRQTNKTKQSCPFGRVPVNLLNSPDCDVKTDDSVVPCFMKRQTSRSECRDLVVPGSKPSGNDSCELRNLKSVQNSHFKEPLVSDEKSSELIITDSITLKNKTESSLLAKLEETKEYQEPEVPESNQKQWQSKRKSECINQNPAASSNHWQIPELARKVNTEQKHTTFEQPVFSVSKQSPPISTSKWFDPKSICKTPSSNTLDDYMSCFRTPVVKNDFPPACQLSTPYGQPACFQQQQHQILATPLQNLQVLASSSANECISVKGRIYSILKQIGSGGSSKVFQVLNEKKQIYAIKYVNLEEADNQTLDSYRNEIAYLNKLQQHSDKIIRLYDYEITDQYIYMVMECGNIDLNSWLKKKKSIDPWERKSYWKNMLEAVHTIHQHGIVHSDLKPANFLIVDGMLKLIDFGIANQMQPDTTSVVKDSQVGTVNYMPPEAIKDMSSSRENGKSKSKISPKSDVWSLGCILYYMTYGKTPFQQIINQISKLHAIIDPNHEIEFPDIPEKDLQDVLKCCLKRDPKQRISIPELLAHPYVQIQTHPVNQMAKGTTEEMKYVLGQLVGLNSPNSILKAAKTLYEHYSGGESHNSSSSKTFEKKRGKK
Procedure: Prolonged TTK target occupancy was also measured in tumors derived from MDA-MB-231 xenograft-bearing mice treated with intermittent i.v. dosing regimen of compound of formula (I). […]

[3] = Group 1, Day 1: single 5 mg/kg i.v., female mice
[4] = Group 2, Day 6: 5 mg/kg i.v. after 10 mg/kg oral daily for 5 days, female mice

COc1cc(N2CCNCC2)ccc1Nc1ncc2c(n1)-n1ccc(C(=O)Nc3c(C)cccc3C)c1CC2 [compound of formula (I)]
Tumor-free (%) (cured based on pathological analysis) (MDA-MB-231 tumor cells; 25 mg/kg, QW, IV): 25%
Tumor-free (pathological evaluation) (MDA-MB-231 tumor cells; 25 mg/kg, QW, IV, mouse 2 and 3): no detectable residual tumor cells; also recorded: no neoplastic epithelial cells (residual tumor cells) were observed
Tumor-free (pathological evaluation) (MDA-MB-231 tumor cells; 25 mg/kg, QW, IV, mouse 2 and 3, listed as Formula (I)): Yes
Tumor-free (pathological evaluation) (MDA-MB-231 tumor cells; 25 mg/kg, QW, IV, mouse 8): two small aggregates of neoplastic cells at the inoculation site; also recorded: still displayed some neoplastic tissue
Tumor-free (pathological evaluation) (MDA-MB-231 tumor cells; 25 mg/kg, QW, IV, mouse 8, listed as Formula (I)): No
local finding leading to treatment stop at Day-30 (MDA-MB-231 tumor cells; 2QW MTD i.v. dosing, repeated IV-injections): tail vein irritations (scabbing)
efficacy of 0.5×MTD i.v. dosing versus MTD daily oral dosing (MDA-MB-231 tumor cells; FIG. 3 and FIG. 4): equipotent efficacy
animals with no measurable/palpable tumor mass (MDA-MB-231 tumor cells; QW MTD i.v. until Day-98, observed Day-80 to Day-125, two of eight animals (FIG. 3 study)): 25%
residual tumor cells by H&E (two animals without palpable tumor) (MDA-MB-231 tumor cells; QW MTD i.v., FIG. 3 study, Day-125): tumor-free
efficacy of MTD i.v. dosing versus MTD oral daily treatment (MDA-MB-231 tumor cells; QW and 2QW i.v., FIG. 3 and FIG. 4): far superior
drug-related animal deaths (MDA-MB-231 tumor cells; all i.v. QW and 2QW treatments, FIG. 1): no drug-related animal deaths recorded
body weight loss (MDA-MB-231 tumor cells; dosing at the MTD, i.v., FIG. 1): ≤ 10%
anti-tumor effect (MDA-MB-231 tumor cells; i.v. MTD-dosing (QW 25 mg/kg, 2QW 12.5 mg/kg), FIG. 1): tumor stasis and tumor regressions were observed
tolerability (MDA-MB-231 tumor cells; mouse, in vivo): relatively well tolerated, with no animal deaths
tumor volume of three of eight tumors after treatment cessation (MDA-MB-231 tumor cells; weekly i.v. MTD group, 20 days observation after cessation on D100): ≤ 6 mm3
activity against PDX [1]: significant activity
concentrations at 24 hours lower than C0 ([2]; 5 mg/kg i.v.): more than 100 fold
maximum AUCinf extrapolation ([2]; 5 mg/kg i.v.): ≤ 2.54%
AUC_% extrapolated [2, 3]: 2.54%
Clast [2, 3]: 5.4 ng/mL
AUC_% extrapolated [2, 4]: 1.65%
Clast [2, 4]: 4.29 ng/mL
half-life ([2]; 5 mg/kg i.v., both groups, read-out: half-life): 240 to 282 min
clearance ([2]; 5 mg/kg i.v., both groups, read-out: plasma clearance): 55.4 to 57.9 mL/min/kg
Vd ([2]; 5 mg/kg i.v., both groups, read-out: volume of distribution): 15.4 to 19 L/kg
AUC(0-inf) [2, 3]: 1440 ng·h/mL
AUC(0-t) [2, 3]: 1400 ng·h/mL
C0 [2, 3]: 636 ng/mL
clearance ([2]; Group 1, Day 1: single 5 mg/kg i.v., female mice, read-out: CL): 57.9 mL/min/kg
half-life ([2]; Group 1, Day 1: single 5 mg/kg i.v., female mice, read-out: T1/2 (converted)): 282 min
Vd ([2]; Group 1, Day 1: single 5 mg/kg i.v., female mice, read-out: Vss): 19 L/kg
AUC(0-inf) [2, 4]: 1500 ng·h/mL
AUC(0-t) [2, 4]: 1480 ng·h/mL
C0 [2, 4]: 627 ng/mL
clearance ([2]; Group 2, Day 6: 5 mg/kg i.v. after 10 mg/kg oral daily for 5 days, female mice, read-out: CL): 55.4 mL/min/kg
half-life ([2]; Group 2, Day 6: 5 mg/kg i.v. after 10 mg/kg oral daily for 5 days, female mice, read-out: T1/2 (converted)): 240 min
Vd ([2]; Group 2, Day 6: 5 mg/kg i.v. after 10 mg/kg oral daily for 5 days, female mice, read-out: Vss): 15.4 L/kg
time TTK completely occupied after last dose (tumor-derived TTK; IV twice-weekly, MTD dose, MDA-MB-231 tumors): at least 72 h
time tumor-derived TTK fully drug-occupied after last administration (tumor-derived TTK; IV weekly MTD dosing, repeat experiment): up to 6 days
